In PubChem BioAssay (NCI):
Several values for one entry are separate records, joined by “and”; a condition that tells them apart may be missing. Equal entries are not always repeated.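 The compound was tested at five concentrations on cells cultured in 96-well plates, with a 48-hour exposure period. GI50 = concentration required for 50% inhibition of growth. TGI is the concentration that stops growth completely.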

Tested on: MDA-MB-468 breast
Experiment: DTP human tumour cell line panel, 48 h

Structure (SMILES) | GI50 | TGI
CN(C)c1ccc2nc3ccc(=[N+](C)C)cc-3sc2c1 | 233 nM and 469 nM | 1010 nM and 3630 nM
CN(C)c1ccc2c(c1)OC(N)=C(C#N)C2c1ccc2c(c1)CCO2 (stereo unspecified) | 117 nM | 47700 nM
Nc1nc(Nc2ccc(C3CCC(N4CCOCC4)CC3)cc2)nn1-c1ccccn1 (stereo unspecified) | 11200 nM | > 100000 nM
Cc1c2c(nn1C)CSCc1cc(n(C)n1)CSc1cc(c3ccccc3c1)OCCCc1c(C(=O)O)n(C)c3c-2c(Cl)ccc13 | 185 nM | 487 nM
CN1CC[C@@H](c2c(O)cc(O)c3c(=O)cc(-c4ccccc4Cl)oc23)[C@@H]1CO | 251 nM | 772 nM
COc1cc(C2c3cc4c(cc3OC(NNC(N)=O)C2C)OCO4)cc(OC)c1O (stereo unspecified) | 7500 nM | > 100000 nM
CC[C@H](CO)Nc1nc(NCc2ccccc2)n2ncc(C(C)C)c2n1 | 1880 nM | 5190 nM
Cn1cc(C2=C(c3cccc(OCC(O)CO)c3)C(=O)NC2=O)c2ccccc21 (stereo unspecified) | > 25000 nM | > 25000 nM
CS(=O)(=O)c1nccc(-c2c(-c3ccc(F)c(OCc4ccc(F)cc4)c3)nc3sccn23)n1 | 2430 nM | 7030 nM
Cc1cc(N2CCCC2)nc(N(CCNc2ccnc3cc(Cl)ccc23)Cc2ccco2)n1 | 1960 nM | 6670 nM
Cc1ccc(CNc2c3ccccc3nc3cc(NC(=O)CCN4CCCC4)ccc23)cc1 | 449 nM | 1630 nM
CCOc1cc2ncc(C#N)c(Nc3ccc(OCc4ccccn4)c(Cl)c3)c2cc1NC(=O)/C=C/CN(C)C | < 10 nM and 5.01 nM | 41.5 nM and 47.9 nM
COc1ccc(C(=O)/C=C/c2c(Cl)c3c(c(OC)c2Cl)OCC(=O)N3)cc1 | 1690 nM | 3700 nM
COc1cccc(-n2ncc3c(N/N=C/c4ccncc4)ncnc32)c1 | 5150 nM | > 25000 nM
O=C(NC[C@H](O)CO)c1ccncc1Nc1ccc(I)cc1F | > 10000 nM and 12100 nM | > 66000 nM
O=C(Nc1ccc(Cl)c(Cl)c1)O/N=C\c1c(Cl)ccc([N+](=O)[O-])c1Cl | 1080 nM | 2720 nM
O=C(Nc1ccc(Cl)cc1)Nc1ccc(Nc2nncc3ccccc23)cc1 | 2570 nM | 9470 nM

Structure (SMILES) | GI50 | TGI
Cc1ccc(S(=O)(=O)Nc2cccc3[nH]c(C(F)(F)F)nc23)cc1 | 536 nM | 26100 nM
Nc1[nH]nc2nc(-c3cccs3)cc(C(F)(F)F)c12 | > 17100 nM | > 25000 nM
O=C(COc1ccc(/C=C2\Oc3ccccc3C2=O)cc1)Nc1nc2c(s1)CCCC2 | 309 nM | 1860 nM
O=C(Nc1cccc(NC(=O)Nc2cc(C(F)(F)F)ccc2Cl)c1)Nc1cc(C(F)(F)F)ccc1Cl | 1100 nM | 7240 nM
CCN(CC)Cc1ccc(Nc2nccc(-c3cnn4ncccc34)n2)cc1 | 35 nM | 97.5 nM
NC(=O)c1c(NC(=O)c2ccc3c(c2)OCO3)sc2c1CCC(=O)C2 | 1960 nM | 4430 nM
COc1cc(C(=O)NC2CCN(C)CC2)c(F)cc1Nc1ncc2c(n1)N(C1CCCC1)CC(F)(F)C(=O)N2C | < 10 nM | 633 nM
COc1ccc(C(=O)c2cc3c(N)c(C(=O)Nc4cccc5ccccc45)sc3nc2C)cc1 | 220 nM | > 50000 nM
O=C(/C=C/c1ccc([N+](=O)[O-])cc1)c1ccc2c3c(cccc13)CC2 | 2980 nM | 19300 nM
O=c1nc2oc3ccc4ccccc4c3cc-2s1 | 551 nM | 19500 nM
CC(C)(O)CC(=O)NCCn1ccc2ncnc(Nc3ccc(Oc4cccc(C(F)(F)F)c4)c(Cl)c3)c21 | 272 nM | 4060 nM
CCCCN(CCCC)c1ccc(C(=N)c2ccc(N(CCCC)CCCC)cc2)cc1 | 189 nM | 748 nM
COc1ccc(/C=C2\CCCC3=C2NC(N)=NC3c2ccc(OC)c(OC)c2)cc1OC (stereo unspecified) | 921 nM | 8840 nM
O=[N+]([O-])c1cccc([As]=[As]c2cccc([N+](=O)[O-])c2)c1 (stereo unspecified) | 52.9 nM | 194 nM
NC(=S)N/N=C/c1ncccc1N | 1890 nM | 10200 nM
CCOc1ccccc1N=Nc1c(C)[nH]n(-c2nc(-c3ccccc3)cs2)c1=O | 8490 nM | > 100000 nM
